Measured values published in US20240261224A1, “FORMULATION OF A PAN-JAK INHIBITOR” (KINASET THERAPEUTICS, INC., priority 2022, published 2024).
Values joined by “and” are separate entries in the source; they are usually repeats but may differ in a detail not shown here. Equal entries are not always repeated. Where two headings read alike, the source gives them in different places.

Tests used:
[1] = Phase 1 Part 3 plasma pharmacokinetics (moderate to severe asthma); type: in vivo, human; conditions: 4 mg BID; for AUC(0-t) / AUC(0-inf) / AUC / Cmax: human, plasma, inhaled, 4 mg
Experimental: Part 3 involved the administration of a single dose regimen (4 mg BID), to subjects (17 active:6 placebo) with moderate to severe asthma treated with background ISC/LABA therapy, over a 10-day period. Blood samples were collected to enable the measurement of KN-002 concentrations in plasma. The resultant data was used to determine the pharmacokinetic parameters at Day 10 representing the Day on which the final dose was received.

[2] = tested on: induced sputum eosinophil count; experiment: Phase 1 Part 3 induced sputum differential eosinophil count; type: in vivo, human; conditions: 4 mg BID
Text: Day 10 sputum and serum inflammatory biomarkers are shown below in Table 29. Part 3 included an evaluation of sputum samples obtained by sputum induction in accordance with European Respiratory Society guidelines (Paggiaro, et al., Eur. Respir. J. 2002, 20: Suppl. 37, 3 s). Subjects were randomized into sputum-producer and non-sputum producer strata with a target minimum of approximately 50% of subjects able to provide an adequate sputum sample at screening. […] Differential cell counts (DCC) were performed on samples judged adequate per standard procedure and patients with evaluable baseline (screening) and Day 10 (or Day 11 if Day 10 was not adequate) post-treatment samples were considered for analyses that included individual and mean absolute and percentage differential eosinophil counts.
In the sputum producer stratum, 6 Compound I (active) subjects and 2 placebo subjects were identified as having adequate baseline and post-treatment sputum samples and the resultant data was used to determine change from baseline, mean change from baseline, and mean placebo-corrected change from baseline (Compound I vs placebo). […] At baseline, all subjects manifested a percent differential eosinophil count >3%, indicative of active eosinophilic inflammation. By Day 10, 66% ( 4/6) of active subjects had improved below 3% eosinophils, with 50% ( 3/6) below a more stringent threshold of 1.9% (Reddel et al., Am. J. Respir. Crit. Care Med. 2009, 180, 59).

TYK2 = TYK2 (Homo sapiens, UniProt P29597); conditions: cited from earlier work
TYK2, sequence (P29597 whole entry): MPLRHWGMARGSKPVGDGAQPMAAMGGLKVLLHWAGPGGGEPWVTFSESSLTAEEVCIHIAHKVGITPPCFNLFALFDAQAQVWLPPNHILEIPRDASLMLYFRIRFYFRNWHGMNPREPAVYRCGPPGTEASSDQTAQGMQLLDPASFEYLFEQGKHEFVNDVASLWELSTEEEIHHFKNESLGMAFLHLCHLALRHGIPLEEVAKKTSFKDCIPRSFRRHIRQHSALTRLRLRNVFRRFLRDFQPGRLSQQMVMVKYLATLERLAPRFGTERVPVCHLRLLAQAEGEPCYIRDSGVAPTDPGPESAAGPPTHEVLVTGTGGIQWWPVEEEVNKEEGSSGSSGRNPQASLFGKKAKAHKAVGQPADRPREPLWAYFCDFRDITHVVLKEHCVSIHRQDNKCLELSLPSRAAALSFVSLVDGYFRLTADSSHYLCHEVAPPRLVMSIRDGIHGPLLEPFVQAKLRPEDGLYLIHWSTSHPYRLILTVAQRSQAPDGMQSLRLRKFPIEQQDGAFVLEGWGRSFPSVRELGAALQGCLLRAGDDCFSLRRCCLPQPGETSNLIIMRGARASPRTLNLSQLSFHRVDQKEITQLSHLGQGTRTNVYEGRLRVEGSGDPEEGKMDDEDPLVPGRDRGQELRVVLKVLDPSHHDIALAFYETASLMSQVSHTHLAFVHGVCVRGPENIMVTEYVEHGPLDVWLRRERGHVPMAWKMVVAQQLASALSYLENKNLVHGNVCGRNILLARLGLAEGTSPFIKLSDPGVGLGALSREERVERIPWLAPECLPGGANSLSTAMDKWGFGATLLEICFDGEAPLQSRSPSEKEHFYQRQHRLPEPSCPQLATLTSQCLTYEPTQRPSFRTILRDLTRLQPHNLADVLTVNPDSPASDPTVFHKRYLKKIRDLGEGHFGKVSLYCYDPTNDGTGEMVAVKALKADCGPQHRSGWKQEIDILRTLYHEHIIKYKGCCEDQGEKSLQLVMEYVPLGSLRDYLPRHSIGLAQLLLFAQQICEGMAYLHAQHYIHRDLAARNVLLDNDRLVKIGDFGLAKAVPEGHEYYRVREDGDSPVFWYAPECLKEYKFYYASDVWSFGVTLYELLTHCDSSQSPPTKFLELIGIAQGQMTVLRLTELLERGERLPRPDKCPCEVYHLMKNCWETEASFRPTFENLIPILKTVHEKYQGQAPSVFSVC

[3] = Day 10, Mean of active subjects (n = 6)
[4] = Day 10, active (n = 6) vs placebo (n = 2)
[5] = Day 10, individual active subjects 13026, 13027, 13038, 13073, 13095, 13097 (c1-c6)
[6] = Mean of active subjects (n = 6)
[7] = individual active subjects 13026, 13027, 13038, 13073, 13095, 13097 (c1-c6)

SMILES: Cn1c(=O)n([C@H]2CCCN(C(=O)CC#N)C2)c2nc(-c3cnn4ccccc34)ccc21 [Compound I, (S)-3-(3-(1-methyl-2-oxo-5-(pyrazolo[1,5-a]pyridine-3-yl)-1H-imidazo[4,5-b]pyridine-3(2H)-yl)piperidin-1-yl)-3-oxopropanenitrile]
- AUC0-24 hours Max ([1]; Day 10): 689,494 pg · h/ml
- AUC0-24 hours Min ([1]; Day 10): 123,642 pg · h/ml
- AUC0-last non-zero Max ([1]; Day 10): 886,864 pg · h/ml
- AUC0-last non-zero Min ([1]; Day 10): 133,118 pg · h/ml
- AUC0-∞ Max ([1]; Day 10): 887,512 pg · h/ml
- AUC0-∞ Min ([1]; Day 10): 134,831 pg · h/ml
- AUCover dosing interval Max ([1]; Day 10): 501,523 pg · h/ml
- AUCover dosing interval Min ([1]; Day 10): 105,203 pg · h/ml
- Cmax Max ([1]; Day 10): 63,800 pg/ml
- Cmax Min ([1]; Day 10): 15,900 pg/ml
- Ctrough Geometric mean ([1]; Day 10): 9,806 pg/ml
- Ctrough Max ([1]; Day 10): 23,000 pg/ml
- Ctrough Mean ([1]; Day 10): 11,153 pg/ml
- Ctrough Min ([1]; Day 10): 2,490 pg/ml
- AUC(0-t) ([1]; Day 10, read-out: AUC0-24 hours Geometric mean): 334 ng·h/mL
- AUC(0-t) ([1]; Day 10, read-out: AUC0-24 hours Mean): 365 ng·h/mL
- AUC(0-t) ([1]; Day 10, read-out: AUC0-last non-zero Geometric mean): 393 ng·h/mL
- AUC(0-t) ([1]; Day 10, read-out: AUC0-last non-zero Mean): 438 ng·h/mL
- AUC(0-inf) ([1]; Day 10, read-out: AUC0-∞ Geometric mean): 395 ng·h/mL
- AUC(0-inf) ([1]; Day 10, read-out: AUC0-∞ Mean): 439 ng·h/mL
- AUC ([1]; Day 10, read-out: AUCover dosing interval Geometric mean): 257 ng·h/mL
- AUC ([1]; Day 10, read-out: AUCover dosing interval Mean): 278 ng·h/mL
- Cmax ([1]; Day 10, read-out: Cmax Geometric mean): 35 ng/mL
- Cmax ([1]; Day 10, read-out: Cmax Mean): 37.5 ng/mL
- Induced sputum % differential eosinophil count, % Change from Screening [2, 3]: −65%
- Induced sputum % differential eosinophil count, Change from Screening [2, 3]: −6.8%
- Induced sputum absolute differential eosinophil count, % Change from Screening [2, 3]: −79%
- Induced sputum absolute differential eosinophil count, Change from Screening [2, 3]: −0.15 10^6/g
- Induced sputum % differential eosinophil count, Mean placebo-corrected change [2, 4]: −21.3%
- Induced sputum absolute differential eosinophil count, Mean placebo-corrected change [2, 4]: −0.22 10^6/g
- Induced sputum % differential eosinophil count, % Change from Screening [2, 5]: −54% and −48% and −81% and −64% and −75% and −94%
- Induced sputum % differential eosinophil count, Change from Screening [2, 5]: −8.3% and −2.3% and −4.3% and −18.8% and −3.0% and −4.5%
- Induced sputum % differential eosinophil count, Reduced to normal level (<3%) [2, 5]: No (2×) and Yes (4×)
- Induced sputum absolute differential eosinophil count, % Change from Screening [2, 5]: −70% and −75% (2×) and −89% and −88% and −100%
- Induced sputum absolute differential eosinophil count, Change from Screening [2, 5]: −0.16 10^6/g and −0.09 10^6/g and −0.08 10^6/g and −0.33 10^6/g and −0.07 10^6/g and −0.17 10^6/g
- Active subjects below more stringent threshold of 1.9% eosinophils (sputum) ([2]; by Day 10 (3/6)): 50%
- Active subjects improved below 3% eosinophils (sputum percent differential count) ([2]; by Day 10 (4/6)): 66%
- Induced sputum % differential eosinophil count, Day 10 level [2, 6]: 3.7%
- Induced sputum absolute differential eosinophil count, Day 10 level [2, 6]: 0.04 10^6/g
- Induced sputum % differential eosinophil count, Day 10 level [2, 7]: 7.0% and 2.5% and 1.0% (2×) and 10.5% and 0.3%
- Induced sputum absolute differential eosinophil count, Day 10 level [2, 7]: 0.07 10^6/g and 0.03 10^6/g and 0.01 10^6/g (2×) and 0.12 10^6/g and 0.001 10^6/g
- Inhibition of TYK2 (TYK2): potent inhibitor
